Test results reported in patent US20230321253A1, “BIFUNCTIONAL COMPOUNDS AND PHARMACEUTICAL USES THEREOF” (RISEN (SUZHOU) PHARMA TECH CO., LTD., priority 2022, published 2023).

Each compound was assayed against T1, KRAS-G12D protein (Homo sapiens, UniProt P01116, G12D) (assay: KRAS-G12D protein degradation study in Aspc-1 cells (western blot)). Details: ASPC1, 24 h, Aspc-1 cells treated with 50 nM compound, 24 hours; read-out: Rate of degradation (KRAS^G12D).
T1 construct: host or cells: Aspc-1 cells
T1 sequence (P01116 1-188 isoform P01116-2 G12D): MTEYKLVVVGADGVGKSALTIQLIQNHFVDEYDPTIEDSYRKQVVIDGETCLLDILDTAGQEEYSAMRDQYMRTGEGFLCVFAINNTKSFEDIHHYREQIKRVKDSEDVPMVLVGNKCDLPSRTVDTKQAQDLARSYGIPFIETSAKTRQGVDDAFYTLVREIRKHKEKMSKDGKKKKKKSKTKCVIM
Format: cell-based
Description: Aspc-1 (Cobioer, CBP60546) cells in exponential growth phase were inoculated on a 6-well cell culture plate (Corning, 3516) at density of 1E6/well; and cells in the plate were cultured in 37° C. incubator containing 5% carbon dioxide. The next day, test compounds were dissolved in DMSO (Sigma, RNBF5902) for the preparation of a 10 mM concentration stock solution. The stock solution was diluted with complete medium (RPMI-1640 supplemented with 10% fetal bovine serum, 1% penicillin-streptomycin), yielding working solutions of various concentrations. The plate, after the addition of compounds, was placed in a 5% carbon dioxide incubator, and incubated at 37° C. for 24 hours (final DMSO concentration was 0.1%). The plate was then removed from the incubator, and the cells were washed twice with precooled PBS (Gibco, 14190250), followed by addition of 80 μL RIPA lysis buffer (containing protease inhibitor (Invitrogen™, AM2696)) to each well. The adherent cells were scraped off with a cell scraper, and the cell lysate was transferred to a 1.5 mL centrifuge tube followed with a 30-minute incubation on ice. The lysate was then clarified with centrifugation at 14000 rpm for 10 min at 4° C. The supernatant was transferred into a new 1.5 mL centrifuge tube, and protein concentration was measured with BCA protein detection kit (Thermo Fisher, 23225). KRAS-G12D protein level was assessed by western blot.
A mixture of cell lysate (40 μL) and loading buffer (10 μL 5×SDS (Beyotime, P0015L)) was denatured in a water bath at 95° C. for 10 min. The denatured protein sample, at 30 μL/well, was loaded into the corresponding well of a 4-20% Bis-Tris gel (Kingsley, M00656). Protein samples were initially electrophoresed at 80 V for 30 minutes, followed by 120 V for 40 minutes, until the bromophenol blue strip ran to an appropriate position. After electrophoresis, iBlot2 (Life Technologies, IB21001) was used to transfer the separated samples onto PVDF film. The PVDF membrane was washed with double-distilled water and then blocked in TBST (Thermo Scientific, 28360) buffer containing 5% non-fat milk, for 2 hours. Blocked membrane was rinsed with tris-buffered saline tween-20 (Thermo Scientific, 28360, TBST) three times, 10 minutes each. Membrane was then incubated with 1:1000 diluted KRAS primary antibody (CST, cat #14429S) overnight at 4° C. Membrane was rinsed as described previously followed by 1 hour incubation of secondary antibody at room temperature. After washing the film three times with TBST, ECL color developing solution was applied, and image was captured with Biorad Chemi Doc gel imager. The band gray value was quantified (Image Lab), and protein degradation level was calculated according to the following formula:
Level of RAS protein expression=(RAS-compound/GAPDH)/(RAS-DMSO/GAPDH)
Level of degradation (%)=(1−Rate of RAS protein expression)×100
The symbols “−”, “+”, “++”, and “+++” indicate that the degradation level of KRAS^G12D protein induced by the test compounds was 10% or less, 11 to 30%, 31 to 60%, and greater than 60%, respectively.
Half-maximum degradation concentrations (DC50s) of exemplary test compounds were calculated using GraphPad Prism and their values are shown in Table 6. The symbols “++++”, “+++”, “++” and “+” indicate DC50 equal or less than 10 nM, 11-50 nM, 51-100 nM, and 101-200 nM, respectively.

Structure (SMILES) | inhibition at 0.05 µM [%]
C#Cc1c(F)ccc2cc(O)cc(-c3ncc4c(N5CC6CCC(C5)N6)nc(OCC5(CN6CCN(c7ccc(NC8CCC(=O)NC8=O)cc7F)CC6)CC5)nc4c3F)c12 (stereo not drawn) [Compound 124] | 11 to 30
C#Cc1c(F)ccc2cc(O)cc(-c3ncc4c(N5CC6CCC(C5)N6)nc(OCC5(CN6CCC7(CCN(c8ccc(NC9CCC(=O)NC9=O)cc8F)CC7)C6)CC5)nc4c3F)c12 (stereo not drawn) [Compound 125] | 31 to 60
C#Cc1c(F)ccc2cc(O)cc(-c3ncc4c(N5CC6CCC(C5)N6)nc(OCC5(CN6CCN(C(=O)CN7CCN(c8ccc(C(=O)NC9CCC(=O)NC9=O)nc8)CC7)CC6)CC5)nc4c3F)c12 (stereo not drawn) [Compound 126] | ≤ 10
C#Cc1c(F)ccc2cc(O)cc(-c3ncc4c(N5CC6CCC(C5)N6)nc(OCC5(CN6CCC7(CC6)CCN(c6ccc8c(c6)C(=O)N(C6CCC(=O)NC6=O)C8=O)CC7)CC5)nc4c3F)c12 (stereo not drawn) [Compound 127] | > 60
Cn1nc(C2CCC(=O)NC2=O)c2ccc(C3CCN(CC(=O)N4CCN(CC5(COc6nc(N7CC8CCC(C7)N8)c7cnc(-c8cc(N)cc(Cl)c8C(F)(F)F)c(F)c7n6)CC5)CC4)CC3)cc21 (stereo not drawn) [Compound 128] | > 60
C#Cc1c(F)ccc2cc(O)cc(-c3ncc4c(N5CC6CCC(C5)N6)nc(OCC5(CN6CC(CN7CCN(c8ccc(C(=O)NC9CCC(=O)NC9=O)nc8)CC7)C6)CC5)nc4c3F)c12 (stereo not drawn) [Compound 134] | 11 to 30
C#Cc1c(F)ccc2cc(O)cc(-c3ncc4c(N5CC6CCC(C5)N6)nc(OCC5(CN6CCC(CN7CCN(c8ccc(C(=O)NC9CCC(=O)NC9=O)nc8)CC7)CC6)CC5)nc4c3F)c12 (stereo not drawn) [Compound 136] | ≤ 10
C#Cc1c(F)ccc2cc(O)cc(-c3ncc4c(N5CC6CCC(C5)N6)nc(OCC5(CN(C)C(=O)CC(C)(C)CC(=O)N6CCC(c7ccc8c(C9CCC(=O)NC9=O)nn(C)c8c7)CC6)CC5)nc4c3F)c12 (stereo not drawn) [Compound 137] | ≤ 10
C#Cc1c(F)ccc2cc(O)cc(-c3ncc4c(N5CC6CCC(C5)N6)nc(OCC5(CN6CC7CN(C(=O)CN8CCC(c9ccc%10c(C%11CCC(=O)NC%11=O)nn(C)c%10c9)CC8)CC7C6)CC5)nc4c3F)c12 (stereo not drawn) [Compound 138] | > 60
C#Cc1c(F)ccc2cc(O)cc(-c3ncc4c(N5CC6CCC(C5)N6)nc(OCC5(CN6CCC(N7CCC(c8ccc9c(C%10CCC(=O)NC%10=O)nn(C)c9c8)CC7)C(F)(F)C6)CC5)nc4c3F)c12 (stereo not drawn) [Compound 139] | 31 to 60
C#Cc1c(F)ccc2cc(O)cc(-c3ncc4c(N5CC6CCC(C5)N6)nc(OCC5(CN6CCC(C7CCN(c8ccc(NC9CCC(=O)NC9=O)cc8F)CC7)CC6)CC5)nc4c3F)c12 (stereo not drawn) [Compound 140] | 31 to 60
C#Cc1c(F)ccc2cc(O)cc(-c3ncc4c(N5CC6CCC(C5)N6)nc(OCC5(CN6CCC(CN7CCN(c8cc9c(cc8F)C(=O)N(C8CCC(=O)NC8=O)C9=O)CC7)CC6)CC5)nc4c3F)c12 (stereo not drawn) [Compound 141] | 11 to 30
C#Cc1c(F)ccc2cc(O)cc(-c3ncc4c(N5CC6CCC(C5)N6)nc(OCC5(CN6CCC(N7CCN(c8ccc(NC9CCC(=O)NC9=O)cc8F)CC7)CC6)CC5)nc4c3F)c12 (stereo not drawn) [Compound 142] | 31 to 60
C#Cc1c(F)ccc2cc(O)cc(-c3ncc4c(N5CC6CCC(C5)N6)nc(OC5CCN(CCCCCNC(=O)CO[C@@H]6C[C@H](C)CC[C@H]6C(C)C)C5)nc4c3F)c12 (stereo partly drawn) [Compound 143] | 11 to 30
C#Cc1c(F)ccc2cc(O)cc(-c3ncc4c(N5CC6CCC(C5)N6)nc(OCC5(CN6CC(CN7CCC(c8ccc9c(C%10CCC(=O)NC%10=O)nn(C)c9c8)CC7)C6)CC5)nc4c3F)c12 (stereo not drawn) [Compound 144] | 31 to 60
C#Cc1c(F)ccc2cc(O)cc(-c3ncc4c(N5CC6CCC(C5)N6)nc(OCC5(CN6CCN(c7ccc(C(=O)NC8CCC(=O)NC8=O)nc7)CC6)CC5)nc4c3F)c12 (stereo not drawn) [Compound 145] | ≤ 10
C#Cc1c(F)ccc2cc(O)cc(-c3ncc4c(N5CC6CCC(C5)N6)nc(OCC5(CN6CCC(CC(=O)N7CCC(c8ccc9c(C%10CCC(=O)NC%10=O)nn(C)c9c8)CC7)CC6)CC5)nc4c3F)c12 (stereo not drawn) [Compound 147] | 31 to 60
C#Cc1c(F)ccc2cc(O)cc(-c3ncc4c(N5CC6CCC(C5)N6)nc(OC5CCN(CCOCCNC(=O)CO[C@@H]6C[C@H](C)CC[C@H]6C(C)C)C5)nc4c3F)c12 (stereo partly drawn) [Compound 148] | ≤ 10
C#Cc1c(F)ccc2cc(O)cc(-c3ncc4c(N5CC6CCC(C5)N6)nc(OCC5(CN6CCC7(CC6)CC(N6CCN(c8cc9c(cc8F)C(=O)N(C8CCC(=O)NC8=O)C9=O)CC6)C7)CC5)nc4c3F)c12 (stereo not drawn) [Compound 152] | 31 to 60
C#Cc1c(F)ccc2cc(O)cc(-c3ncc4c(N5CC6CCC(C5)N6)nc(OCC5(CN6CCC7(CC6)CC(N6CCN(c8cccc9c8C(=O)N(C8CCC(=O)NC8=O)C9=O)CC6)C7)CC5)nc4c3F)c12 (stereo not drawn) [Compound 153] | 31 to 60
C#Cc1c(F)ccc2cc(O)cc(-c3ncc4c(N5CC6CCC(C5)N6)nc(OCC5(CN6CCC(C(=O)Nc7ccc8c(C9CCC(=O)NC9=O)nn(C)c8c7)CC6)CC5)nc4c3F)c12 (stereo not drawn) [Compound 159] | 31 to 60
C#Cc1c(F)ccc2cc(O)cc(-c3ncc4c(N5CC6CCC(C5)N6)nc(OCC5(CN6CCC7(CC6)CC(N6CC=C(c8cccc9c8n(C)c(=O)n9C8CCC(=O)NC8=O)CC6)C7)CC5)nc4c3F)c12 (stereo not drawn) [Compound 161] | 31 to 60
C#Cc1c(F)ccc2cc(O)cc(-c3ncc4c(N5CC6CCC(C5)N6)nc(OCC5(CN6CCC7(CC6)CC(N6CCC(c8cccc(C9CCC(=O)NC9=O)c8)CC6)C7)CC5)nc4c3F)c12 (stereo not drawn) [Compound 162] | ≤ 10
C#Cc1c(F)ccc2cc(O)cc(-c3ncc4c(N5CC6CCC(C5)N6)nc(OCC5(CN6CCC7(CC6)CC(Nc6cccc8c(C9CCC(=O)NC9=O)n[nH]c68)C7)CC5)nc4c3F)c12 (stereo not drawn) [Compound 163] | 31 to 60
C#Cc1c(F)ccc2cc(O)cc(-c3ncc4c(N5CC6CCC(C5)N6)nc(OCC5(CN6CCC(CNc7cccc8c(C9CCC(=O)NC9=O)nn(C)c78)CC6)CC5)nc4c3F)c12 (stereo not drawn) [Compound 165] | 31 to 60

Same assay, conditions: ASPC1, 24 h, Aspc-1 cells treated with 0.1 μM compound, 24 hours; read-out: Rate of protein degradation (KRAS^G12D)

Structure (SMILES) | inhibition at 0.1 µM [%]
C#Cc1c(F)ccc2cc(O)cc(-c3ncc4c(N5CC6CCC(C5)N6)nc(OCC5(CN6CCN(C(=O)CN7CCN(c8ccc9c(c8)C(=O)N(C8CCC(=O)NC8=O)C9=O)CC7)CC6)CC5)nc4c3F)c12 (stereo not drawn) [Compound 116] | 31 to 60
C#Cc1c(F)ccc2cc(O)cc(-c3ncc4c(N5CC6CCC(C5)N6)nc(OCC5(CN6CCN(c7ccc8c(c7)C(=O)N(C7CCC(=O)NC7=O)C8=O)CC6)CC5)nc4c3F)c12 (stereo not drawn) [Compound 117] | > 60
C#Cc1c(F)ccc2cc(O)cc(-c3ncc4c(N5CC6CCC(C5)N6)nc(OCC5(CN6CCN(C7CC(C(=O)N8CCC(c9ccc%10c(C%11CCC(=O)NC%11=O)nn(C)c%10c9)CC8)C7)CC6)CC5)nc4c3F)c12 (stereo not drawn) [Compound 118] | > 60
C#Cc1c(F)ccc2cc(O)cc(-c3ncc4c(N5CC6CCC(C5)N6)nc(OC5CCN(CCCCCCOc6cc(-c7scnc7C)ccc6CNC(=O)[C@@H]6C[C@@H](O)CN6C(=O)[C@@H](NC(=O)C6(F)CC6)C(C)(C)C)CC5)nc4c3F)c12 [Compound 131] | ≤ 10
C#Cc1c(F)ccc2cc(O)cc(-c3ncc4c(N5CC6CCC(C5)N6)nc(OCCN5CCN(C(=O)CCCCCOc6cc(-c7scnc7C)ccc6CNC(=O)[C@@H]6C[C@@H](O)CN6C(=O)[C@@H](NC(=O)C6(F)CC6)C(C)(C)C)CC5)nc4c3F)c12 [Compound 132] | 11 to 30
C#Cc1c(F)ccc2cc(O)cc(-c3ncc4c(N5CC6CCC(C5)N6)nc(OCC5(CN6CCC(CN7CCN(c8cc9c(cc8F)C(=O)N(C8CCC(=O)NC8=O)C9=O)CC7)CC6)CC5)nc4c3F)c12 (stereo not drawn) [Compound 141] | > 60

Same assay, conditions: Aspc-1 cells treated with 0.1 μM compound, 24 hours

Structure (SMILES) | Rate of protein degradation (KRAS^G12D)
C#Cc1c(F)ccc2cc(O)cc(-c3ncc4c(N5CC6CCC(C5)N6)nc(OCC5(CN6CCN(C(=O)CN7CCC(c8ccc9c(C%10CCC(=O)NC%10=O)nn(C)c9c8)CC7)CC6)CC5)nc4c3F)c12 (stereo not drawn) [Compound 119] | + (11 to 30%)

Same assay, conditions: Aspc-1 cells; read-out: DC50 of test compound-induced KRAS^G12D protein degradation

Structure (SMILES) | DC50 [nM]
C#Cc1c(F)ccc2cc(O)cc(-c3ncc4c(N5CC6CCC(C5)N6)nc(OCC5(CN6CCN(C7CC(C(=O)N8CCC(c9ccc%10c(C%11CCC(=O)NC%11=O)nn(C)c%10c9)CC8)C7)CC6)CC5)nc4c3F)c12 (stereo not drawn) [Compound 118] | < 10
